{"source": "patent US20130004936A1", "about": "“SUPERCOOLING PROMOTING AGENT” (National University Corporation Hokkaido Universit, priority 2010, published 2013)", "format_in_all_cases": "physicochemical", "key": {"[1]": {"experiment": "Supercooling activity, droplets on cooled copper plate, silver iodide as ice nucleus substance", "details": "for supercooling activity: against an ice nucleus substance AgI, concentration not given; for freezing temperature (INT50): 0.1 mass % substance, 10 mM AgI, cooling 0.2° C./min", "procedure": "(§1) In the present invention, a supercooling activity (also referred to as ice nucleus formation inhibitory activity) was measured by the following method. That is, an object to be measured was mixed at […] in a buffer containing an ice nucleus substance to prepare a solution, and many 2-μL liquid droplets of the solution were placed on a copper plate where the temperature could be controlled. The copper plate was cooled at 0.2° C./min, and the number of frozen liquid droplets was visually observed. The temperature at which 50% of the liquid droplets were frozen was defined as a freezing temperature, and a difference between the freezing temperature of the solution including the object to be measured and the ice nucleus substance and the freezing temperature of a solution including only the ice nucleus substance and the buffer (control) (INT50 (° C.)) was defined as a supercooling activity. As the buffer, a 50 mM potassium phosphate buffer (pH 7.0) was used.\nIn Examples 4 to 8 below, 10 mM silver iodide (AgI) (manufactured by NACALAI TESQUE, INC.), 2 mg/mL dead bacterial cells of an ice nucleation active bacterium Erwinia ananas (manufactured by Wako Pure Chemical Industries, Ltd.), 2 mg/mL dead bacterial cells of an ice nucleation active bacterium Xanthomonas campestris (manufactured by Wako Pure Chemical Industries, Ltd.), and 120 mM phloroglucinol (manufactured by TOKYO CHEMICAL […] CO., LTD.) were used as ice nucleus substances, and ultrapure water obtained by passing water through an ultrapure water device manufactured by Millipore Corporation was used (MilliQ Water). A substance to be measured (1 mg/mL) was mixed in a buffer containing any one of the ice nucleus substances and ultrapure water (MilliQ Water), and the supercooling activities were measured by the above-mentioned method. A difference between the freezing temperature of the solution containing the substance to be measured and the ice nucleus substance and the freezing temperature of the solution including only the ice nucleus substance, and a difference between the freezing temperature of pure water having dissolved therein the substance to be measured and the freezing temperature of only pure water were determined as supercooling activities (ice nucleus formation inhibitory activities) (see FIGS. 8 to 11 and Tables 1 to 4)."}, "[2]": {"system": "dead bacterial cells of an ice nucleation active bacterium (Erwinia ananas)", "experiment": "Supercooling activity (ice nucleus formation inhibitory activity), 2-μL droplets on cooled copper plate, Erwinia ananas as ice nucleus substance", "details": "for activity that allows water to be supercooled: 2 mg/mL Erwinia ananas, substance 0.01 to 3 mg/mL (FIG. 6); for freezing temperature (INT50): 0.1 mass % substance, 2 mg/mL dead E. ananas cells, cooling 0.2° C./min, temperature at which 50% of droplets froze", "procedure": "as §1\nThe water suspension of the crude extract was centrifuged at 20° C. and 14,000 G, and the supernatant was collected. 300 mL of the supernatant and 600 mL of ethyl acetate were mixed, and the mixture was divided into a water-soluble part and an ethyl acetate-soluble part by a separating funnel, followed by drying. Supercooling activities of the parts were measured by the above-mentioned method. Dead bacterial cells of an ice nucleation active bacterium (Erwinia ananas) (manufactured by Wako Pure Chemical Industries, Ltd.) were used as an ice nucleus substance.\nThe fractions K to S obtained above were analyzed by high-performance liquid chromatography (column: PC hydrophilic interaction chromatography column (HILIC), solvent: acetonitrile:water=9:1, flow rate: 1 mL/min, detector: UV 280 nm). […] The three substances are known substances, and their structures were confirmed by ^1H-NMR. FIGS. 3 to 5 show the resultant ^1H-NMR charts. FIG. 6 show the supercooling activity of water containing each of the three substances with 2 mg/mL Erwinia ananas serving as an ice nucleus-forming substance, together with control data in the case of containing none of the three substances.\nA substance to be measured (1 mg/mL) was mixed in a buffer containing any one of the ice nucleus substances and ultrapure water (MilliQ Water), and the supercooling activities were measured by the above-mentioned method. A difference between the freezing temperature of the solution containing the substance to be measured and the ice nucleus substance and the freezing temperature of the solution including only the ice nucleus substance, and a difference between the freezing temperature of pure water having dissolved therein the substance to be measured and the freezing temperature of only pure water were determined as supercooling activities (ice nucleus formation inhibitory activities) (see FIGS. 8 to 11 and Tables 1 to 4)."}, "[3]": {"experiment": "Supercooling activity, droplets on cooled copper plate, phloroglucinol as ice nucleus substance", "details": "0.1 mass % substance; 120 mM phloroglucinol; cooling 0.2° C./min", "procedure": "as §1\n(§2) In Examples 4 to 8 below, 10 mM silver iodide (AgI) (manufactured by NACALAI TESQUE, INC.), 2 mg/mL dead bacterial cells of an ice nucleation active bacterium Erwinia ananas (manufactured by Wako Pure Chemical Industries, Ltd.), 2 mg/mL dead bacterial cells of an ice nucleation active bacterium Xanthomonas campestris (manufactured by Wako Pure Chemical Industries, Ltd.), and 120 mM phloroglucinol (manufactured by TOKYO CHEMICAL […] CO., LTD.) were used as ice nucleus substances, and ultrapure water obtained by passing water through an ultrapure water device manufactured by Millipore Corporation was used (MilliQ Water). A substance to be measured (1 mg/mL) was mixed in a buffer containing any one of the ice nucleus substances and ultrapure water (MilliQ Water), and the supercooling activities were measured by the above-mentioned method. […]"}, "[4]": {"experiment": "Supercooling activity, droplets on cooled copper plate, ultrapure water without ice nucleus substance", "details": "0.1 mass % substance; ultrapure water (MilliQ Water); cooling 0.2° C./min", "procedure": "as §1, §2"}, "[5]": {"system": "dead bacterial cells of an ice nucleation active bacterium Xanthomonas campestris", "experiment": "Supercooling activity, droplets on cooled copper plate, Xanthomonas campestris as ice nucleus substance", "details": "0.1 mass % substance; 2 mg/mL dead X. campestris cells; cooling 0.2° C./min", "procedure": "as §1, with “used. […]” for “used.”"}}}
{"compound": "O=C(O)c1cc(O)c(O)c(O)c1", "note": "[GA, gallic acid]", "values": [{"measurement": "supercooling activity", "setting": "[1]", "value": "−1.2", "unit": "°C"}]}
{"compound": "O=C(OC[C@H]1O[C@@H](OC(=O)c2cc(O)c(O)c(O)c2)[C@H](OC(=O)c2cc(O)c(O)c(O)c2)[C@@H](O)[C@@H]1O)c1cc(O)c(O)c(O)c1", "note": "[1,2,6-tri-O-galloyl-β-D-glucose]", "values": [{"measurement": "activity that allows water to be supercooled", "setting": "[2]", "value": "about 5 °C"}]}
{"compound": "Oc1cc(O)c2c(c1)O[C@H](c1cc(O)c(O)c(O)c1)[C@H](O)C2", "note": "[EGC, epigallocatechin]", "values": [{"measurement": "freezing temperature (INT50)", "setting": "[2]", "value": "−5.7", "unit": "°C"}, {"measurement": "freezing temperature (INT50)", "setting": "[1]", "value": "−6.9", "unit": "°C"}, {"measurement": "freezing temperature (INT50)", "setting": "[3]", "value": "−8.8", "unit": "°C"}, {"measurement": "freezing temperature (INT50)", "setting": "[4]", "value": "−15.8", "unit": "°C"}]}
{"compound": "O=C(/C=C/c1ccc(O)c(O)c1)O[C@@H]1C[C@](O)(C(=O)O)C[C@@H](O)[C@H]1O", "note": "[ChA, chlorogenic acid]", "values": [{"measurement": "supercooling activity", "setting": "[1]", "value": "−0.6", "unit": "°C"}]}
{"compound": "O=c1oc2c(O)c(O)cc3c(=O)oc4c(O)c(O)cc1c4c23", "note": "[EA, ellagic acid]", "values": [{"measurement": "supercooling activity", "setting": "[1]", "value": "−0.3", "unit": "°C"}]}
{"compound": "O=C(O[C@@H]1Cc2c(O)cc(O)cc2O[C@@H]1c1cc(O)c(O)c(O)c1)c1cc(O)c(O)c(O)c1", "note": "[EGCG, epigallocatechin gallate]", "values": [{"measurement": "freezing temperature (INT50)", "setting": "[2]", "value": "−8.3", "unit": "°C"}, {"measurement": "freezing temperature (INT50)", "setting": "[1]", "value": "−6.9", "unit": "°C"}, {"measurement": "freezing temperature (INT50)", "setting": "[3]", "value": "−8.4", "unit": "°C"}, {"measurement": "freezing temperature (INT50)", "setting": "[5]", "value": "−8.9", "unit": "°C"}, {"measurement": "freezing temperature (INT50)", "setting": "[4]", "value": "−20.0", "unit": "°C"}]}
{"compound": "2,3,6-tri-O-galloyl-α,β-D-hamamelose", "values": [{"measurement": "activity that allows water to be supercooled", "setting": "[2]", "value": "about 5 °C"}]}
{"compound": "O=C(OC[C@H]1O[C@@H](OC(=O)c2cc(O)c(O)c(O)c2)[C@H](OC(=O)c2cc(O)c(O)c(O)c2)[C@@H](OC(=O)c2cc(O)c(O)c(O)c2)[C@@H]1O)c1cc(O)c(O)c(O)c1", "note": "[1,2,3,6-tetra-O-galloyl-β-D-glucose]", "values": [{"measurement": "activity that allows water to be supercooled", "setting": "[2]", "value": "about 5 °C"}]}
{"compound": "O=C(O)/C=C/c1ccc(O)c(O)c1", "note": "[CaA, caffeic acid]", "values": [{"measurement": "supercooling activity", "setting": "[1]", "value": "−1.9", "unit": "°C"}]}
{"compound": "O=C(O[C@@H]1Cc2c(O)cc(O)cc2O[C@@H]1c1ccc(O)c(O)c1)c1cc(O)c(O)c(O)c1", "note": "[ECG, epicatechin gallate]", "values": [{"measurement": "freezing temperature (INT50)", "setting": "[2]", "value": "−8.4", "unit": "°C"}, {"measurement": "freezing temperature (INT50)", "setting": "[1]", "value": "−7.8", "unit": "°C"}, {"measurement": "freezing temperature (INT50)", "setting": "[3]", "value": "−9.6", "unit": "°C"}, {"measurement": "freezing temperature (INT50)", "setting": "[5]", "value": "−8.7", "unit": "°C"}, {"measurement": "freezing temperature (INT50)", "setting": "[4]", "value": "−18.7", "unit": "°C"}]}
{"compound": "COC(=O)c1cc(O)c(O)c(O)c1", "note": "[MG, methyl gallate]", "values": [{"measurement": "supercooling activity", "setting": "[1]", "value": "−3.3", "unit": "°C"}]}
